Laboratory results published in patent publication US5639751A, “N-acyl-2,3-benzodiazepine derivatives for treating acute and chronic neurodegenerative disorders” (priority 1990, dated 1997).
Like-named read-outs stand apart in the source and are kept apart here.

Tests used:
[1] = test system: male CFLP mice; assay: Anticonvulsive effect in mice, pentetrazole; type: in vivo; settings: Mus musculus, po, read-out: ED50 p.o., Pentetrazole
Protocol: (§1) The anticonvulsive effect of the compounds of the formula (I) was measured by using the electroshock test [J. Pharmacol. Exp. Ther. 106, 319 (1952)], furthermore by using various chemical agents such as pentetrazole [J. Pharmacol. Exp. Ther. 108, 168 (1953)], strychnine [J. Pharmacol. Exp. Ther. 129, 75 (1960)], bemegride, nicotine and 4-aminopyridine. The test compounds were orally administered in 3 doses, to 10 male CFLP mice per dose.

[2] = test system: male CFLP mice; assay: Anticonvulsive effect in mice, electroshock test; type: in vivo; settings: Mus musculus, po, read-out: ED50 p.o., ES (electroshock)
Protocol: as §1

[3] = test system: cats; assay: Effect on spinal (polysynaptic) flexor reflexes in chloralose anaesthetized cats; type: in vivo; settings: Felis catus, iv
Description: Res. Comm. 20, S1, 141 (1988)].

[4] = test system: CFLP mice; assay: Inclined screen test in mice; type: in vivo; settings: Mus musculus, ip, read-out: ED50 i.p., inclined screen test
Description: In Randall's inclined screen test [J. Pharmacol. Exp. Ther. 129, 163 (1960)] the compounds were applied in 3 i.p. doses to 10 CFLP mice per dose.

[5] = test system: male CFLP mice; assay: Anticonvulsive effect in mice, strychnine; type: in vivo; settings: Mus musculus, po, read-out: ED50 p.o., Strychnine
Protocol: as §1

[6] = test system: mice; assay: Rotarod test in mice; type: in vivo; settings: Mus musculus, ip, read-out: ED50 i.p., rotarod test
Description: The rotarod test was used to measure muscular tone and motor co-ordination [J. Am. Pharm. Assoc. 46, 208 (1957)].

[7] = test system: male CFLP mice; assay: Anticonvulsive effect in mice, 4-aminopyridine; type: in vivo; settings: Mus musculus, po, read-out: ED50 p.o., 4-AP (4-aminopyridine)
Protocol: as §1

[8] = test system: male CFLP mice; assay: Anticonvulsive effect in mice, bemegride; type: in vivo; settings: Mus musculus, po, read-out: ED50 p.o., Bemegride
Protocol: as §1

[9] = test system: AMPA/kainate receptors; assay: Inhibition of synaptic field potentials (population spikes) in rat hippocampal slices; type: cell-based; settings: population spikes in CA1, after 30 min. perfusion
Protocol: Synaptic potentials in the CA1 area of hippocampus evoked by stimulation of the Schaffer collaterals are mediated by AMPA/kainate receptors. […] Lett. 92, 64 (1988)].
The inhibition of population spikes in CA1 was studied in rat hippocampal slices after 30 min. perfusion application of the test compounds.

[10] = test system: male CFLP mice; assay: Anticonvulsive effect in mice, nicotine; type: in vivo; settings: Mus musculus, po
Protocol: as §1

[11] = Acute toxicity in mice; settings: mouse, in vivo
Protocol: The cause of mortality was respiratory insufficiency developing within 1 to 2 hours after i.p. administration and within 10 to 20 hours after oral application.

[12] = test system: mice; assay: Protection against methamphetamine-induced dopaminergic neurotoxicity, in mice; type: in vivo; settings: METH 2×20 mg/kg i.p., Example 128 3×5 mg/kg i.p., MK-801 3×2.5 mg/kg i.p.
Protocol: High doses of methamphetamine (2×20 mg/kg i.p.) decrease the striatal level of dopamine, which can be prevented by glutamate antagonists, e.g. the NMDA-antagonist MK-801 [Science 243, 398 (1989)].

[13] = Kainate induced spreading depression in isolated chicken retina; type: cell-based; settings: kainate (5 μM)
Protocol: (§2) Anti-kainate and -AMPA effects were investigated in the in vitro retinal spreading depression model [Brain Res. 607, 189 (1993)]. AMPA/kainate antagonists prolong the latency of the development of spreading depression evoked. by kainate (5 μM), or AMPA (5 μM). In some cases the effect on spreading depression evoked by 100 μM NMDA was also studied to clarify the selectivity.

[14] = AMPA induced spreading depression in isolated chicken retina; type: cell-based; settings: AMPA (5 μM)
Protocol: as §2

[15] = test system: cats; assay: Effects on spinal root reflex potentials in spinalized and immobilized cats; type: in vivo; settings: Felis catus, iv
Protocol: The effect of compound of Example 15(16) on the spinal root potentials in cats was tested in spinalized and immobilized animals [Neuropharmacology 21, 161 (1989)].

[16] = test system: NMDA; assay: NMDA induced responses (DC potentials) in rat neocortex slices; type: cell-based
[17] = test system: AMPA receptors; assay: Inhibition of synaptic field potentials in rat neocortex slices; type: cell-based
Description: Similarly as in hippocampal CA1 area, glutamate is the main excitatory transmitter in the neocortex, and dominantly AMPA receptors are involved in mediation of synaptic responses evoked by stimulation of the white matter and recorded from the area adjacent to the site of stimulation [J. Neurophysiol. 64, 1282 (1990)]. The inhibitory effect on such field potentials was studied in rat neocortex slices, maintained in Vitro, according to Fletcher et al. [Br. J. Pharmacol. 95, 585 (1988)].

[18] = test system: AMPA receptor; assay: Inhibition of quisqualate induced DC potentials in rat neocortex slices; type: cell-based
Protocol: The AMPA antagonist effect was tested in rat neocortex slices by using a method similar to that of Harrison and Simmonds [Br. J. Pharmacol. 84, 381 (1985)].

[19] = test system: NMDA; assay: NMDA evoked spreading depression in isolated chicken retina; type: cell-based; settings: spreading depression evoked by 100 μM NMDA
Protocol: as §2

[20] = test system: [^3 H]-AMPA specific binding sites in CNS membrane preparations; settings: Neuroreport 5, 93 (1993); cited from earlier work
[21] = test system: [^3 H]-kainate specific binding sites in CNS membrane preparations; settings: Neuroreport 5, 93 (1993); cited from earlier work
[22] = * <20% inhibition at the highest dose applied, read-out: ED50, DRP (dorsal root potential)
[23] = * <20% inhibition at the highest dose applied, read-out: ED50, DRR (dorsal root reflex)
[24] = read-out: ED50, MSR (monosynaptic ventral root reflex)
[25] = read-out: ED50, PSR (polysynaptic ventral root reflex)

| Compound | ED50 [1] | ED50 [2] | ED50 [3] | ED50 [4] | ED50 [5] | ED50 [6] | IC50 [9] | ED50 [10] | LD50 ([11]; ip, read-out: LD50 i.p.) | LD50 ([11]; po, read-out: LD50 p.o.) | IC50 [13] | IC50 [14] | also measured |
| --- | --- | --- | --- | --- | --- | --- | --- | --- | --- | --- | --- | --- | --- |
| CNC(=O)N1N=C(c2ccc(N)cc2)c2cc3c(cc2CC1C)OCO3 (stereo not shown) [Example 98, 1-(4-Aminophenyl)-3-methylcarbamoyl-4-methyl-7,8-methylenedioxy-3,4-dihydro-5H-2,3-benzodiazepine] | 21.3 mg/kg | 17.1 mg/kg | 0.14 mg/kg | 18 mg/kg | 29 mg/kg | 8.6 mg/kg | 12.6 µM | 19 mg/kg | 93.1 mg/kg | 96.6 mg/kg |  |  | ED50 [7]: 13.5 mg/kg; ED50 [8]: 11 mg/kg |
| CC(=O)N1N=C(c2ccc(N)cc2)c2cc3c(cc2CC1C)OCO3 (single isomer, unassigned; (-)) [Example 128, (-)-1-(4-Aminophenyl)-3-acetyl-4-methyl-7,8-methylenedioxy-3,4-dihydro-5H-2,3-benzodiazepine] |  |  | 0.13 mg/kg |  |  |  | 7.8 µM |  | 73.5 mg/kg | ~100 mg/kg | 2.7 µM | 1 µM | ED50 ([1]; mice, p.o.): 16.8 mg/kg; ED50 ([2]; mice, p.o.): 5.3 mg/kg; (DOPAC + HVA)/DA, % ([12]; % of saline group): 144%; DA, % ([12]; % of saline group): 48%; (DOPAC + HVA)/DA, mean ± SE ([12]; striatal dopamine turnover): 0.36 ± 0.10; DA, μg/g tissue, mean ± SE ([12]; striatal dopamine): 7.17 ± 1.89 μg/g tissue; ED50 ([6]; mice, i.p.): 2.3 mg/kg |
| NS(=O)(=O)c1cccc2c1c([N+](=O)[O-])cc1[nH]c(=O)c(=O)[nH]c12 [NBQX, 1,2,3,4-tetrahydro-6-nitro-2,3-dioxo-benzo(f)quinoxaline-7-sulfonamide, reference compound] |  |  | 0.91 mg/kg |  |  |  |  |  |  |  |  |  |  |
| CNC(=O)N1N=C(c2ccc(N)cc2)c2cc3c(cc2CC1C)OCO3 (single isomer, unassigned; (-)) [Example 123, (-)-1-(4-Aminophenyl)-3-methylcarbamoyl-4-methyl-7,8-methylenedioxy-3,4-dihydro-5H-2,3 benzodiazepine] | 13.8 mg/kg | 8.4 mg/kg | 0.05 mg/kg | 8.8 mg/kg |  | 1.9 mg/kg | 3.9 µM |  | ~50 mg/kg | 75 to 100 mg/kg | 0.5 µM | 1.7 µM |  |
| N#Cc1cc2[nH]c(=O)c(=O)[nH]c2cc1[N+](=O)[O-] [CNQX, 1,2,3,4-tetrahydro-7-nitro-2,3-dioxo-quinoxalinecarbonitrile, reference compound] |  |  |  |  |  |  | 1.4 µM |  |  |  |  |  |  |
| CC1=NN=C(c2ccc(N)cc2)c2cc3c(cc2C1)OCO3 [GYKI 52466, 1-(4-aminophenyl)-4-methyl-7,8-methylenedioxy-5H-2,3-benzodiazepine, reference compound] | 115 mg/kg | 38 mg/kg | 0.9 mg/kg | 47 mg/kg | 87 mg/kg | 24 mg/kg | 31.7 µM | 70 mg/kg |  |  | 9.5 µM | 6.3 µM | ED50 [15, 22]: > 4 mg/kg; ED50 [15, 23]: > 4 mg/kg; ED50 [15, 24]: 2.2 mg/kg; ED50 [15, 25]: 2.3 mg/kg; Effect on the responses induced by NMDA [16]: failed to affect; IC50 [17]: 30 µM; Inhibition of induced field potentials in % of control ([17]; concentration 10 μM): 22%; Inhibition of induced field potentials in % of control ([17]; concentration 20 μM): 39%; Inhibition of induced field potentials in % of control ([17]; concentration 40 μM): 62%; Inhibition of induced field potentials in % of control ([17]; concentration 80 μM): 73%; Inhibition of DC-potential changes induced by perfusion of quisqualate ([18]; concentration range of 10-50 μM): dose-dependently inhibited; NMDA antagonist effect, times weaker than AMPA antagonist effect [19]: ≥ 10 times; ED50 [7]: 43 mg/kg; ED50 [8]: 73 mg/kg; Displacement of [3H]-AMPA from specific binding sites [20]: displace neither; Displacement of [3H]-kainate from specific binding sites [21]: displace neither |
| CC(=O)N1N=C(c2ccc(N)cc2)c2cc3c(cc2CC1C)OCO3 (stereo not shown) [Example 15 (16), 1-(4-Aminophenyl)-3-acetyl-4-methyl-7,8-methylenedioxy-3,4-dihydro-5H-2,3-benzodiazepine] |  |  | 0.36 mg/kg |  | > 200 mg/kg |  | 24.8 µM | 45 mg/kg | 127 mg/kg | 130 mg/kg | 5.1 µM | 3.7 µM | ED50 [15, 22]: > 1.6 mg/kg; ED50 [15, 23]: > 1.6 mg/kg; ED50 [15, 24]: 0.69 mg/kg; ED50 [15, 25]: 0.77 mg/kg; ED50 ([1]; mice, p.o.): 46.8 mg/kg; ED50 ([2]; mice, p.o.): 12 mg/kg; Effect on the responses induced by NMDA [16]: failed to affect; ED50 ([4]; mice, i.p.): 23.5 mg/kg; IC50 [17]: 21.5 µM; Inhibition of induced field potentials in % of control ([17]; concentration 10 μM): 30%; Inhibition of induced field potentials in % of control ([17]; concentration 20 μM): 47%; Inhibition of induced field potentials in % of control ([17]; concentration 40 μM): 69%; Inhibition of induced field potentials in % of control ([17]; concentration 80 μM): 82%; Activity relative to the reference compound GYKI 52466 in inhibiting the response to quisqualate ([18]; 2-minute perfusion with 10 μM of quisqualate, corresponding concentrations): twice as active; ED50 ([6]; mice, i.p.): 3.7 mg/kg; ED50 ([7]; mice, p.o.): 9 mg/kg; ED50 ([8]; mice, p.o.): 16 mg/kg |
